The values that follow come from patent US20090208448A1, “Inhibition of angiogenesis” (priority 2008, published 2009).

One series relates to serum cholesterol. Briefly: Serum cholesterol levels in diet/ezetimibe SCID mouse cohorts (Infinity colorimetric assay). As to conditions: ezetimibe 30 mg/kg/d, 4 weeks, both LFNC and HFHC diet groups, drug F=23.48, p<0.001. The format is in vivo, SCID mice. The protocol:
Mice and Tumor Xenografts. 5 week old SCID mice were obtained from the Massachusetts General Hospital and were fed a low fat/no cholesterol diet (LFNC) (Research Diets, New Brunswick, N.J. diet # D12102) for two weeks, blood was drawn from the saphenous tail vein and the serum cholesterol concentration was determined using the Infinity Cholesterol Liquid Stable Reagent (Thermo Electron Corp.). For intact (non-castrated) mice, the animals were divided into the high fat/high cholesterol diet (HFHC) (Research Diets, diet # D12108) and LFNC groups with and without ezetimibe (30 mg/kg/day; Schering-Plough, New Brunswick, N.J.) and the mice continued on these diets for four weeks. For castrated mice, the mice were divided into 4 groups, 2 groups were castrated, and 2 groups were left intact. […] Tumors were measured daily from the initiation of the first palpable tumors and the mice sacrificed prior to reaching the maximum tumor burden (13-23 days post implantation). Terminal bleeds were taken (Cardiac puncture) for serology (triglyceride, bilirubin and other liver function tests were performed in the Dept. of Laboratory Medicine, Children's Hospital Boston, androgen levels were determined by a testosterone EIA, Diagnostic Systems Laboratories, Webster, Tex.). Tumors were removed, measured, weighed and either placed in OCT solution (Tissue-Tek, Torrance, Calif.) or snap frozen. […]

Series [1] deals with LNCaP xenograft tumors. In words: Fibroblast staining of tumor sections. The format is in vivo, SCID mice. The conditions noted are these: HFHC condition, p=0.03, n=55/group. The protocol: (§1) Immunofluorescence. Tumor samples frozen in OCT were sectioned (3-20 μm thick), mounted on Superfrost slides (ThermoFisher Scientific, Waltham, Mass.), and air-dried for 30 min. Sections were then fixed using cold acetone (5 min), followed by 1:1 acetone:chloroform (5 min), and then acetone (5 min) or by using 4% PFA at room temp (30 min) followed by 0.025% PBS/Triton X-100 (5 min) to permeabilize the cells. Sections were washed with cold PBS 3× for 5 min each and were incubated in a protein blocking solution of PBS/Tween (0.1%) with 5% bovine serum albumin (BSA; Sigma) at room temp (30 min) and were then washed in cold PBS 3× for 5 min each. The appropriate primary antibodies diluted 1:200-1:1000 in blocking solution were incubated with the sections overnight at 4° C. Sections were washed 3× for 5 min in cold PBS, and incubated in blocking solution (10 min). The sections were then incubated with the appropriate fluorescent secondary reporter antibodies diluted 1:500-1:5000 in blocking solution at room temp (30 min) followed by washing 3× in PBS. Nuclei were counter-stained with DAPI. Double staining of CD31 with TSP-1 and CD31 with SMA were performed sequentially as described above. […] Ki67 positive cells and nuclei were quantified using AxioVision 4.0 software.

In series [2] the test system is LNCaP xenograft tumors. In words: MVD, caveolin-1 analysis (immunoblotting and immunofluorescence). The format is in vivo, SCID mice. The method, then:
as §1, with “min).” for “min). The sections were then incubated with the appropriate fluorescent secondary reporter antibodies diluted 1:500-1:5000 in blocking solution at room temp (30 min) followed by washing 3× in PBS. Nuclei were counter-stained with DAPI. Double staining of CD31 with TSP-1 and CD31 with SMA were performed sequentially as described above.”
Lysates and Immunoblotting. […] Protein concentrations were determined by microBCA (Pierce/Thermo Scientific) and equal amounts of the lysates were subjected to SDS-PAGE and immunoblotting as described previously (Zhuang, L., Kim, J., Adam, R. M.-, Solomon, K. R., and Freeman, M. R. 2005. Cholesterol targeting alters lipid raft composition and cell survival in prostate cancer cells and xenografts. J Clin Invest 115:959-968).
A general note: In western blotting, separated proteins are transferred to a membrane and probed.

The test system of series [3] is LNCaP human prostate tumor xenografts. Briefly: Growth of implanted LNCaP prostate tumor xenografts (volume, wet weight, take). The format is in vivo, SCID mice. The protocol:
(§2) Mice and Tumor Xenografts. 5 week old SCID mice were obtained from the Massachusetts General Hospital and were fed a low fat/no cholesterol diet (LFNC) (Research Diets, New Brunswick, N.J. diet # D12102) for two weeks, blood was drawn from the saphenous tail vein and the serum cholesterol concentration was determined using the Infinity Cholesterol Liquid Stable Reagent (Thermo Electron Corp.). For intact (non-castrated) mice, the animals were divided into the high fat/high cholesterol diet (HFHC) (Research Diets, diet # D12108) and LFNC groups with and without ezetimibe (30 mg/kg/day; Schering-Plough, New Brunswick, N.J.) and the mice continued on these diets for four weeks. For castrated mice, the mice were divided into 4 groups, 2 groups were castrated, and 2 groups were left intact. The mice were fed either the LFNC, or a low fat/high cholesterol diet (LFHC) (Research Diets, diet #D12104) for 80 days. Xenografts were initiated by injecting LNCaP (2×10^6 per site) with 1:1 volume of Matrigel (BD BioSciences, San Jose, Calif.) into the 4 dorsal quadrants of each mouse. In order to eliminate any injection bias, the mice were randomized prior to implantation and the implanter was blinded to which group each mouse was assigned. All animal procedures were done in compliance with Children's Hospital Boston's animal care and use policies. Tumors were measured daily from the initiation of the first palpable tumors and the mice sacrificed prior to reaching the maximum tumor burden (13-23 days post implantation). Terminal bleeds were taken (Cardiac puncture) for serology (triglyceride, bilirubin and other liver function tests were performed in the Dept. of Laboratory Medicine, Children's Hospital Boston, androgen levels were determined by a testosterone EIA, Diagnostic Systems Laboratories, Webster, Tex.). Tumors were removed, measured, weighed and either placed in OCT solution (Tissue-Tek, Torrance, Calif.) or snap frozen.
Following alteration of cholesterol levels, the mice from Example 3 were injected subcutaneously with 2×10^6 LNCaP cells in their flanks (4 tumors/mouse). Regimens were continued following implantation, and the experiment continued for 13 days following the initial appearance of tumors. Tumor volume was measured daily (FIG. 2B). […] The overall effect of diet and ezetimibe was independent and additive, not synergistic. […] Tumor take was >95% in all groups and no significant differences in tumor take were observed.

The subject of series [4] is LNCaP xenograft tumors. Briefly: Tumor cell apoptosis (TUNEL staining). As to conditions: ezetimibe main effect p<0.0001, no synergy with diet (p=0.85). The format is in vivo, SCID mice. The protocol:
Apoptosis. Percentage of apoptotic cells in tumor sections was determined by TUNEL assay using the In Situ Cell Death Detection Kit (Roche Diagnostics Corp. Indianapolis, Ind.). Briefly, frozen tumor sections were fixed in 4% paraformaldehyde (PFA), permeabilized and the DNA stained with fluorescein following the manufacturer's instructions. Nuclei were counterstained with DAPI (Vector Labs, Burlingame, Calif.). Images were captured using a Zeiss microscope and the positive cells and nuclei were counted using Axiovision software 4.0.

Series [5] deals with LNCaP xenograft tumors. Briefly: Microvessel density (MVD), CD31 analysis. The format is in vivo, SCID mice. The conditions noted are these: ezetimibe p=0.013, larger effects with HFHC (p=0.01). The method, then: as §1
Series [6] has as its system LNCaP xenograft tumors. Briefly: Tumor hemoglobin quantification. The format is in vivo, SCID mice. The conditions noted are these: n=20. The method, then: Hemoglobin Assay. Tumors were finely minced in 1 ml of fresh PBS on ice. The minced tissue suspensions were centrifuged at 10,000 g at 4° C. (2 min) and the supernatant was removed. The optical density (OD) of the clarified supernatants was read at 650 nm (background) and 530 nm (hemoglobin) using a spectrophotometer (Boyle, M. D., and Ohanian, S. H. 1980. Evidence for the influence of the initial complement components on the assembly and activity of the membrane attack complex. J Immunol 124:2824-2827; Gee, A. P., Boyle, M. D., and Borsos, T. 1980. Distinction between C8-mediated and C8/C9-mediated hemolysis on the basis of independent 86Rb and hemoglobin release. J Immunol 124:1905-1910).

For series [7] the following is noted: literature (Jurado 2004; Knopp 2003); cited from earlier work.
The subject of series [8] is LNCaP xenograft tumors. In words: Tumor membrane cholesterol analysis. The format is in vivo, SCID mice. The conditions noted are these: ezetimibe main effect p<0.0001, n=9/group. The method, then: Tumor cholesterol analysis. Tumors were finely minced in phosphate buffered saline (PBS) on ice and the level of cholesterol was determined as described previously (Boucher, K., Siegel, C. S., Sharma, P., Hauschka, P. V., and Solomon, K. R. 2006. HMG-CoA reductase inhibitors induce apoptosis in pericytes. Microvasc Res 71:91-102).

For another series, the system named is VEGF or bFGF. Briefly: VEGF or bFGF expression in the cohorts. As to conditions: between the diet/drug cohorts, data not shown. The format is in vivo, SCID mice.
Another series relates to thrombospondin-1 (TSP-1). In words: Thrombospondin-1 (TSP-1) levels in tumor sections. The format is in vivo, SCID mice. As to conditions: ezetimibe p<0.0001. The method, then:
as §1

Series [9] can be described thus: Serology (triglyceride, liver function tests) and feeding observation. The format is in vivo, SCID mice. The protocol: as §2
Series [10] relates to LNCaP xenograft tumors. In words: Tumor cell proliferation (Ki67 staining). The format is in vivo, SCID mice. The method, then: Immunofluorescence. Tumor samples frozen in OCT were sectioned (3-20 μm thick), mounted on Superfrost slides (ThermoFisher Scientific, Waltham, Mass.), and air-dried for 30 min. Sections were then fixed using cold acetone (5 min), followed by 1:1 acetone:chloroform (5 min), and then acetone (5 min) or by using 4% PFA at room temp (30 min) followed by 0.025% PBS/Triton X-100 (5 min) to permeabilize the cells. Sections were washed with cold PBS 3× for 5 min each and were incubated in a protein blocking solution of PBS/Tween (0.1%) with 5% bovine serum albumin (BSA; Sigma) at room temp (30 min) and were then washed in cold PBS 3× for 5 min each. The appropriate primary antibodies diluted 1:200-1:1000 in blocking solution were incubated with the sections overnight at 4° C. Sections were washed 3× for 5 min in cold PBS, and incubated in blocking solution (10 min). The sections were then incubated with the appropriate fluorescent secondary reporter antibodies diluted 1:500-1:5000 in blocking solution at room temp (30 min) followed by washing 3× in PBS. Nuclei were counter-stained with DAPI. Double staining of CD31 with TSP-1 and CD31 with SMA were performed sequentially as described above. Blood vessel analysis was done using IPLab software (BD Biosciences Bioimaging, Rockville, Md.) as previously described (Bielenberg, D. R., Hida, Y., Shimizu, A., Kaipainen, A., Kreuter, M., Kim, C. C., and Klagsbrun, M. 2004. Semaphorin 3F, a chemorepulsant for endothelial cells, induces a poorly vascularized, encapsulated, nonmetastatic tumor phenotype. J Clin Invest 114:1260-1271). Thombospndin-1 (TSP-1) analysis was done using the outline spline in AxioVision 4.0 software. Ki67 positive cells and nuclei were quantified using AxioVision 4.0 software.

In series [11] the test system is LNCaP xenograft tumors. Briefly: Pericyte coverage of microvessels (SMA staining). The format is in vivo, SCID mice. The conditions noted are these: ezetimibe groups, p<0.0001. The method, then: as §1

Structures are written as SMILES. “Also recorded” adds a separate entry of the source.

Turning to `O=C1[C@H](CC[C@H](O)c2ccc(F)cc2)[C@@H](c2ccc(O)cc2)N1c1ccc(F)cc1` [ezetimibe], the serum cholesterol entry in the series with serum cholesterol is reported as “significant effects”; in the series on serum cholesterol (listed as Ezetimibe), “significant reductions”. For the same compound, in the series with LNCaP xenograft tumors [1], the “relative level of fibroblast staining” value is “statistically significant ezetimibe effect”. In addition, in the series on LNCaP xenograft tumors [2] (both diet conditions, p=0.027, n=6/group), the “average caveolin-1 signal, immunoblotting” value is listed as “significant drug effect in lowering caveolin”. In the series with LNCaP xenograft tumors [2] (ezetimibe p<0.0001, n=43/group), the “relative level of caveolin-1 staining, immunofluorescence” value is on record as “highly significant main effects”. Besides, the “tumor wet weight at sacrifice” value is 0.63 ± 0.55 g in [3] (LFNC diet with drug, p=0.021 vs HFHC (0.88±0.71 g)) and 0.63±0.55 average grams/tumor site in series [3] (LFNC+Z group, p=0.021 vs HFHC (0.88±0.71)). Also, in series [3] (all diet/drug groups, no significant differences), the tumor take was over 95%. The “tumor growth rates (tumor volume)” value in series [3] (ezetimibe 30 mg/kg/day added to diet, 13 days from first appearance of tumors, p=0.035) is recorded as “Significantly reduced”. In the series with LNCaP xenograft tumors [4], the “tumor cell apoptosis (relative level of TUNEL staining)” value is on record as “highly significant main effects; also recorded: significantly increased”. The “microvessel density (relative level of CD31 staining)” value in the series with LNCaP xenograft tumors [5] is given as “highly significant main effect; also recorded: significantly suppressed”. For the same compound, the figures for the “relative hemoglobin/mg tumor tissue” value in the series on LNCaP xenograft tumors [6] (HFHC+Z vs HFHC) and in the series with LNCaP xenograft tumors [6] (LFNC vs LFNC+Z) were “statistical significance” and “not statistically different”, respectively. Moreover, the “triglyceride levels in humans” value in series [7] is listed as “modest effect”. The “tumor cholesterol levels (membranes)” value in the series with LNCaP xenograft tumors [8] is “highly significant main effects; also recorded: independently affected”. Further, the “VEGF or bFGF expression” value in the series with VEGF or bFGF is on record as “no differences”. In addition, in the series on thrombospondin-1 (TSP-1), the “TSP-1 levels in tumors (relative level of TSP-1 staining)” value was “highly significant main effects; also recorded: enhanced”. The “liver function (AST, ALP, bilirubin etc)” value in [9] (any mouse, all groups, data not shown) is reported as “no liver dysfunction”. In series [9] (ezetimibe cohorts, data not shown), the serum triglyceride levels entry is listed as “no significant reduction; also recorded: nor were triglyceride levels significantly reduced”. Moreover, the feeding behavior result in [9] (observation, calorie intake 21.18 Kcal/d) was “did not alter feeding behavior”. Moreover, the figures for the “relative level of Ki67 staining” value with LNCaP xenograft tumors [10] (HFHC diet w/ezetimibe (HFHC alone 41.16)) and in the series with LNCaP xenograft tumors [10] (LFNC diet w/ezetimibe (LFNC alone 28.78)) were 30.32 (95% CI; 26.96-33.68) and 25.57 (95% CI; 22.21-28.93), respectively. Also, the “tumor cell proliferation (Ki67), effect in words” value in the series with LNCaP xenograft tumors [10] (ezetimibe by diet interaction p=0.027, magnitude depends on the diet) is given as “significant effect on lowering proliferation”. Also, in the series on LNCaP xenograft tumors [11], the “pericyte coverage of vessels (relative level of SMA staining)” value is given as “highly significant main effects; also recorded: dramatically increased”.
